Source: PubChem BioAssay AID248 (DTP/NCI, 2004)
Several values for one entry are separate records, joined by “and”; a condition that tells them apart may be missing. Equal entries are not always repeated. Toxic doses and inconclusive results are not listed.

Test system: L1210 leukemia ip in BDF1 mice, survival T/C
Test: NCI In Vivo Anticancer Drug Screen. Data for tumor model L1210 Leukemia (intraperitoneal) in B6D2F1 (BDF1) mice
Conditions: endpoint: mean survival time, higher = longer survival
How it was run: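 Tumor cells were implanted, animals were treated, and survival was followed. The result divides the treated measurement by the vehicle-control measurement.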

[1] = dose: 100.0 mg/kg/injection, schedule: Q01DX009 (ip), vehicle: Klucel (hydroxypropylcellulose) (HPC)
[2] = dose: 200.0 mg/kg/injection, schedule: Q01DX009 (ip), vehicle: Klucel (hydroxypropylcellulose) (HPC)
[3] = dose: 400.0 mg/kg/injection, schedule: Q01DX009 (ip), vehicle: Klucel (hydroxypropylcellulose) (HPC)
[4] = dose: 100.0 mg/kg/injection, schedule: Q01DX001 (ip), vehicle: Klucel (hydroxypropylcellulose) (HPC)
[5] = dose: 200.0 mg/kg/injection, schedule: Q01DX001 (ip), vehicle: Klucel (hydroxypropylcellulose) (HPC)
[6] = dose: 25.0 mg/kg/injection, schedule: Q04DX003 (ip), vehicle: saline
[7] = dose: 50.0 mg/kg/injection, schedule: Q04DX003 (ip), vehicle: saline
[8] = dose: 100.0 mg/kg/injection, schedule: Q01DX001 (ip), vehicle: other
[9] = dose: 100.0 mg/kg/injection, schedule: Q01DX001 (ip), vehicle: saline with Tween-80
[10] = dose: 100.0 mg/kg/injection, schedule: Q04DX002 (ip), vehicle: saline with Tween-80
[11] = dose: 100.0 mg/kg/injection, schedule: Q04DX003 (ip), vehicle: saline with Tween-80
[12] = dose: 200.0 mg/kg/injection, schedule: Q01DX001 (ip), vehicle: saline with Tween-80
[13] = dose: 200.0 mg/kg/injection, schedule: Q04DX002 (ip), vehicle: saline with Tween-80
[14] = dose: 200.0 mg/kg/injection, schedule: Q04DX003 (ip), vehicle: saline with Tween-80
[15] = dose: 400.0 mg/kg/injection, schedule: Q01DX001 (ip), vehicle: saline with Tween-80
[16] = dose: 400.0 mg/kg/injection, schedule: Q04DX002 (ip), vehicle: saline with Tween-80
[17] = dose: 400.0 mg/kg/injection, schedule: Q04DX003 (ip), vehicle: saline with Tween-80

Compound: CCN(CC)c1cc(C(C)(C)C)cc(C(C)(C)C)c1
- T/C (dose: 100.0 mg/kg/injection, schedule: Q04DX003 (ip), vehicle: saline sonified): 114 % of control
- T/C (dose: 200.0 mg/kg/injection, schedule: Q04DX003 (ip), vehicle: saline sonified): 94 % of control
- T/C (dose: 400.0 mg/kg/injection, schedule: Q04DX003 (ip), vehicle: saline sonified): 101 % of control

Compound: Cc1ccc(N=C(c2ccc([N+](=O)[O-])cc2)c2ccc([N+](=O)[O-])cc2)cc1
- T/C [1]: 97 % of control
- T/C (dose: 100.0 mg/kg/injection, schedule: Q04DX003 (ip), vehicle: Klucel (hydroxypropylcellulose) (HPC)): 96 % of control
- T/C [2]: 96 % of control
- T/C (dose: 200.0 mg/kg/injection, schedule: Q04DX003 (ip), vehicle: Klucel (hydroxypropylcellulose) (HPC)): 102 % of control
- T/C [3]: 102 % of control
- T/C (dose: 400.0 mg/kg/injection, schedule: Q04DX003 (ip), vehicle: Klucel (hydroxypropylcellulose) (HPC)): 96 % of control

Compound: CC(=O)Oc1ccccc1[N+](=O)[O-]
- T/C [1]: 106 % of control
- T/C [2]: 91 % of control

Compound: O=NN(CCCl)C(=O)N[C@@H]1CCC[C@@H](O)C1
- T/C (dose: 13.0 mg/kg/injection, schedule: Q01DX001 (ip), vehicle: saline with Tween-80): 250 % of control
- T/C (dose: 20.0 mg/kg/injection, schedule: Q01DX001 (ip), vehicle: saline with Tween-80): 357 % of control
- T/C (dose: 30.0 mg/kg/injection, schedule: Q01DX001 (ip), vehicle: saline with Tween-80): 420 % of control
- T/C (dose: 44.0 mg/kg/injection, schedule: Q01DX001 (ip), vehicle: saline with Tween-80): 417 % of control

Compound: CC(O)(c1ccccc1)C(C(=O)O)c1ccccc1 (centres undefined)
- T/C (dose: 50.0 mg/kg/injection, schedule: Q01DX001 (ip), vehicle: saline): 103 % of control
- T/C (dose: 100.0 mg/kg/injection, schedule: Q01DX001 (ip), vehicle: saline): 103 % of control
- T/C (dose: 200.0 mg/kg/injection, schedule: Q01DX001 (ip), vehicle: saline): 103 % of control
- T/C (dose: 400.0 mg/kg/injection, schedule: Q01DX001 (ip), vehicle: saline): 97 % of control

Compound: COC1(OC)C2C=CC1C1C(=O)CC1C(=O)C2 (centres undefined)
- T/C (dose: 75.0 mg/kg/injection, schedule: Q01DX009 (ip), vehicle: Klucel (hydroxypropylcellulose) (HPC)): 108 % of control
- T/C [4]: 100 % of control
- T/C (dose: 150.0 mg/kg/injection, schedule: Q01DX009 (ip), vehicle: Klucel (hydroxypropylcellulose) (HPC)): 113 % of control
- T/C [5]: 103 % of control
- T/C (dose: 300.0 mg/kg/injection, schedule: Q01DX009 (ip), vehicle: Klucel (hydroxypropylcellulose) (HPC)): 105 % of control
- T/C (dose: 400.0 mg/kg/injection, schedule: Q01DX001 (ip), vehicle: Klucel (hydroxypropylcellulose) (HPC)): 90 % of control

Compound: [CH3][Sn]([CH3])([Br])[CH2]CCBr
- T/C (dose: 0.78 mg/kg/injection, schedule: Q01DX009 (ip), vehicle: saline): 100 % of control
- T/C (dose: 1.56 mg/kg/injection, schedule: Q01DX009 (ip), vehicle: saline): 100 % of control

Compound: CC(=O)/C(C)=C/C(=O)O
- T/C (dose: 25.0 mg/kg/injection, schedule: Q01DX009 (ip), vehicle: saline): 95 % of control
- T/C [6]: 97 % of control
- T/C (dose: 50.0 mg/kg/injection, schedule: Q01DX009 (ip), vehicle: saline): 97 % of control
- T/C [7]: 97 % of control
- T/C (dose: 100.0 mg/kg/injection, schedule: Q01DX009 (ip), vehicle: saline): 105 % of control
- T/C (dose: 100.0 mg/kg/injection, schedule: Q04DX003 (ip), vehicle: saline): 97 % of control and 108 % of control

Compound: CC12CCC(=O)C=C1CCC1C2CCC2(C)C(OC(=O)CN3CC3)CCC12 (centres undefined)
- T/C (dose: 100.0 mg/kg/injection, schedule: Q01DX001 (sc), vehicle: steriod suspending solution): 101 % of control
- T/C (dose: 200.0 mg/kg/injection, schedule: Q01DX001 (sc), vehicle: steriod suspending solution): 97 % of control
- T/C (dose: 400.0 mg/kg/injection, schedule: Q01DX001 (sc), vehicle: steriod suspending solution): 103 % of control

Compound: Clc1ccc2c[n+]3ccccc3cc2c1
- T/C (dose: 2.0 mg/kg/injection, schedule: Q01DX Z (ip), vehicle: carboxymethylcellulose (CMC)): 102 % of control
- T/C (dose: 4.0 mg/kg/injection, schedule: Q01DX Z (ip), vehicle: carboxymethylcellulose (CMC)): 92 % of control
- T/C (dose: 8.0 mg/kg/injection, schedule: Q01DX Z (ip), vehicle: carboxymethylcellulose (CMC)): 103 % of control
- T/C (dose: 16.0 mg/kg/injection, schedule: Q01DX Z (ip), vehicle: carboxymethylcellulose (CMC)): 105 % of control

Compound: CCOc1ccc(NC(=O)C(Br)C(Br)C(=O)O)cc1 (centres undefined)
- T/C [1]: 94 % of control
- T/C [2]: 98 % of control
- T/C [3]: 100 % of control

Compound: CC/C(=N/OC(=O)NC)c1ccccc1
- T/C (dose: 44.0 mg/kg/injection, schedule: Q01DX001 (ip), vehicle: other): 94 % of control and 106 % of control
- T/C (dose: 67.0 mg/kg/injection, schedule: Q01DX001 (ip), vehicle: other): 93 % of control and 110 % of control
- T/C [8]: 102 % of control and 110 % of control
- T/C (dose: 150.0 mg/kg/injection, schedule: Q01DX001 (ip), vehicle: other): 96 % of control and 108 % of control

Compound: O=C1C=C(O)c2ccccc2C1=O
- T/C (dose: 10.0 mg/kg/injection, schedule: Q01DX Z (ip), vehicle: other): 98 % of control
- T/C (dose: 12.5 mg/kg/injection, schedule: Q04DX003 (ip), vehicle: saline with Tween-80): 98 % of control
- T/C (dose: 20.0 mg/kg/injection, schedule: Q01DX Z (ip), vehicle: other): 88 % of control
- T/C (dose: 25.0 mg/kg/injection, schedule: Q04DX003 (ip), vehicle: saline with Tween-80): 106 % of control
- T/C (dose: 30.0 mg/kg/injection, schedule: Q01DX Z (ip), vehicle: other): 90 % of control
- T/C (dose: 31.2 mg/kg/injection, schedule: Q01DX Z (ip), vehicle: other): 97 % of control
- T/C (dose: 40.0 mg/kg/injection, schedule: Q01DX Z (ip), vehicle: other): 90 % of control
- T/C (dose: 50.0 mg/kg/injection, schedule: Q04DX003 (ip), vehicle: saline with Tween-80): 92 % of control

Compound: COc1cccc(C(O)c2cnc(C)n2Cc2ccccc2)c1 (centres undefined)
- T/C [9]: 94 % of control
- T/C (dose: 100.0 mg/kg/injection, schedule: Q01DX009 (ip), vehicle: saline with Tween-80): 93 % of control and 107 % of control
- T/C [10]: 97 % of control and 100 % of control
- T/C [11]: 101 % of control
- T/C [12]: 100 % of control
- T/C (dose: 200.0 mg/kg/injection, schedule: Q01DX009 (ip), vehicle: saline with Tween-80): 98 % of control and 99 % of control
- T/C [13]: 102 % of control and 107 % of control
- T/C [14]: 93 % of control
- T/C [15]: 103 % of control
- T/C (dose: 400.0 mg/kg/injection, schedule: Q01DX009 (ip), vehicle: saline with Tween-80): 98 % of control and 108 % of control
- T/C [16]: 105 % of control and 88 % of control
- T/C [17]: 98 % of control

Compound: CCOC(=O)C1(O)CSC(O)(C(=O)OCC)CS1 (centres undefined)
- T/C [8]: 101 % of control
- T/C (dose: 200.0 mg/kg/injection, schedule: Q01DX001 (ip), vehicle: other): 97 % of control
- T/C (dose: 400.0 mg/kg/injection, schedule: Q01DX001 (ip), vehicle: other): 92 % of control

Compound: CC(C)(C)NC(=O)CCl
- T/C [4]: 93 % of control
- T/C [5]: 106 % of control

Compound: CC(C)(C)c1ccc(N)cc1
- T/C (dose: 12.5 mg/kg/injection, schedule: Q04DX003 (ip), vehicle: saline): 106 % of control
- T/C [6]: 95 % of control
- T/C [7]: 98 % of control

Compound: CSc1ccc(NC(=O)Oc2ccc3c(C)cc(=O)oc3c2)cc1
- T/C (dose: 25.0 mg/kg/injection, schedule: Q01DX009 (ip), vehicle: saline with Tween-80): 93 % of control and 100 % of control
- T/C (dose: 50.0 mg/kg/injection, schedule: Q01DX009 (ip), vehicle: saline with Tween-80): 95 % of control and 89 % of control
- T/C [9]: 94 % of control
- T/C [10]: 98 % of control and 91 % of control
- T/C [11]: 87 % of control
- T/C [12]: 94 % of control
- T/C [13]: 94 % of control and 91 % of control
- T/C [14]: 86 % of control
- T/C [15]: 96 % of control
- T/C [16]: 96 % of control and 98 % of control
- T/C [17]: 95 % of control

Compound: CCC(C)(C(=O)OCCOCCCl)c1cccc2ccccc12 (centres undefined)
- T/C [10]: 95 % of control
- T/C [13]: 104 % of control
- T/C [16]: 101 % of control
